# Source: US20230026163A1, “ANTICANCER COMPOUND AND MEDICAL USE THEREOF” (ASCENTAWITS PHARMACEUTICALS, LTD., priority 2019, published 2023)
# Read-outs that look alike come from different tables or passages of the source.
# Tests used:
# H460 cell line = assay: Hypoxia-dependent cytotoxicity experiment (2 hours exposure, air or N2, CTG); assay type: cell-based; conditions: Homo sapiens, then 3 days
# Protocol: To determine the effect of the compounds of the present disclosure on cancer cell proliferation, these compounds were tested for cancer cell anti-proliferative activity in a porous CTG-based assay. Cell growth was compared in the present (treatment groups) and the absence of the test compound. 10,000 cells/well/495 μL of medium was used to test the following cell line, a human tumor cell line of H460 non-small cell lung cancer. The cells were seeded on glass-inserts located in each well of 24-well plates with a density and medium as specified above. 24 hours later, the plates were divided into 2 groups, hypoxia (using N2) group and air group. TH-302 at the concentrations from 100, 10, 0.1 to 0.01 μM, and the test compounds at the concentrations from 10, 1, 0.1, 0.01, 0.001 to 0.0001 were added to each well (500 μL volume) of the treatment groups. The final DMSO concentration in each well was lower than or equal to 1%. The cells in the hypoxia group were incubated for 2 hours in an ELECTROTEK hypoxia workstation. The cells in the air group were incubated for 2 hours in a standard culture incubator. 2 hours later, the test compounds were removed from each well. The cells were washed with 500 μL of medium and incubated in 500 μL of fresh medium for 3 days. 3 days later, 200 μL of medium per well was discarded. 60 μL of CTG was added to the wells, and the plates were placed at room temperature for 15 minutes in the dark. 100 μL of medium from each well of the 24-well plates was transferred to 96-well plates. The chemiluminescence signal values were read with an M5 full-band multi-mode-function microplate reader, and integration=750 ms. The compounds of control 1 and control 2 were used as controls.
# CYP450R enzyme = target: T1, CYP450R enzyme (Homo sapiens, UniProt P16435); assay: Hypoxia-dependent reduction experiment with NADPH and CYP450R; assay type: biochemical; conditions: in the presence of NADPH and CYP450R enzymes
# T1 sequence (P16435 1-677): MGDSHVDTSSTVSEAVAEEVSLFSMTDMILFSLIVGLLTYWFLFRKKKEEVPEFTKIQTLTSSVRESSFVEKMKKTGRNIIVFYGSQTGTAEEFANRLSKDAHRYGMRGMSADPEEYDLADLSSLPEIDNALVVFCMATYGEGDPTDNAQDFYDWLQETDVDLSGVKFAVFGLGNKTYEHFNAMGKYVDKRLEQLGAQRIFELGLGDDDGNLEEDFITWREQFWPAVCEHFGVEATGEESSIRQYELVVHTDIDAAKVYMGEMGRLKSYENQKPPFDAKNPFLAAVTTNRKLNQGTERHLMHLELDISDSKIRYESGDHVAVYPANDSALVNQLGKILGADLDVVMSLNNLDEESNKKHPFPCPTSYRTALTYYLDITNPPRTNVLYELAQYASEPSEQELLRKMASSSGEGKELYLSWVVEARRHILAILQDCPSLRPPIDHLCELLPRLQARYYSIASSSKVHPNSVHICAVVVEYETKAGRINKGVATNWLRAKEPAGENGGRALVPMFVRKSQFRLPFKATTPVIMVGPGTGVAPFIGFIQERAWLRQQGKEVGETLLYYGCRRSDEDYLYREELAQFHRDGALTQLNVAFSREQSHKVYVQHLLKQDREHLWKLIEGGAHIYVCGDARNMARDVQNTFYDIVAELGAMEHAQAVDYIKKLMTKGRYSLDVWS
# Protocol: Ingredients were added to each tube without NADPH. Next, 50 μL of the condition B samples were transferred into 100 μL of acetonitrile (T=0). For the samples to be tested under hypoxia condition, the tubes were placed in a hypoxia chamber (BACTRON anaerobic/environmental chamber). The reactions were initiated by adding NADPH to tube A and tube C. Then, the samples with NADPH were placed at 37° C. For the samples to be tested in air condition, the tubes were placed in a hot plate at 37° C. After 30 minutes and 2 hours of incubation, 50 μL of samples were taken from each tube and mixed with 100 μL of acetonitrile. All tubes were spun to remove any protein precipitate and placed in HPLC vials for analysis. The results were compared with the standard curve of the authentic standard. The specific composition of the reagents in each sample reaction tube was shown as follow.
# The drugs relative to the initial amount of the test drug (TH-302, compound 01) of the 3 different sample reaction tubes of A/B/C that have been reacted for different times (0/30 min/120 min). The results of adding different concentrations of human NADPH coenzyme were shown in FIG. 3 and FIG. 4, respectively.
# Plasma stability, human = assay type: in vitro ADME; conditions: 5 μM, 37° C., after 30 minutes
# Protocol: Frozen plasma was melted immediately in a water bath at 37° C. […] The supernatants were collected into new tubes, respectively. pH values of the plasma were checked and recorded. Note: a, no more 2 times melted plasma was used since the sample was received; b, the plasma in pH 7 to pH 8 was used.
# 1 mM of working solution of the test compounds and the control compound, propantheline, were prepared in DMSO. 1 mM of working solution of the control compound in […] was prepared in acetonitrile. 4 μL of the working solutions were added to 796 μL of pre-incubated plasma respectively to achieve a final concentration of 5 μM. The final concentration of solvent was 0.5%.
# Aliquots of 50 μL of labelled plasma were transferred to new tubes and incubated in a water bath at 37° C. at approximately 60 rpm for 2 hours. The test was performed in duplicate. […] 50 μL of the labeled plasma was added to new tubes containing 300 μL of the quench solution of room temperature, i.e., the sample with a preparation time of 0. The samples were vortexed to mix for 5 minutes. […] 100 μL of the supernatant was transferred to new plates.
# [1] = Hepatomicrosome stability, mouse; conditions: for Remaining percentage after 30 minutes: Mouse, 2 μM
# Protocol: 1a) With NADPH: 10 μL of 20 mg/mL of hepatomicrosome and 40 μL of 10 mM of NADPH were added to medium. The final concentrations of hepatomicrosome and NADPH were 0.5 mg/mL and 1 mM, respectively.
# 1b) Without NADPH: 10 μL of 20 mg/mL hepatomicrosome and 40 μL of ultra-pure H2O were added to medium. The final concentration of hepatomicrosome was 0.5 mg/mL.
# 3) 3) Aliquots of 50 μL from the reaction solutions at 0 minute and 30 minutes were taken. The reaction solutions were stopped by adding 4 volumes of cold acetonitrile and 4 internal standards (IS internal standard, 100 nM of Alprazolam, 200 nM of caffeine, 200 nM of Labetalol, and 2 μM of Ketoprofen) to stop the reaction solution. The samples were centrifuged at 3,220 g for 40 minutes. Aliquots of 100 μL of the supernatants were mixed with 100 μL of ultra-pure H2O. Then, the mixtures were used for LC-MS/MS analysis. All experiments were performed in duplicate. The test results were as follow.
structure (smiles),measurement,setting,value
O=[N+]([O-])c1ccc(C(OP(=O)(N2CC2)N2CC2)C(F)(F)F)c2ccccc12 (centres unmarked) [Compound 01],IC50,"H460 cell line; NCI-H460, H460, air, read-out: Normoxia: IC50",331 nM
same,IC50,"H460 cell line; NCI-H460, H460, hypoxia (N2), read-out: N2: IC50",23.9 nM
same,Reduction ratio compared with TH-302,CYP450R enzyme,similar
same,Hypoxia-dependent reduction,CYP450R enzyme; 37° C.,showed the hypoxia-dependent reduction reaction
same,Remaining percentage,"Plasma stability, human",68.68%
same,Remaining percentage after 30 minutes,[1]; with NADPH,102.89%
same,Remaining percentage after 30 minutes,[1]; without NADPH,103.07%
same,Stability in hepatomicrosomes (conclusion),[1]; mice,relatively stable
